Key:
Bacillus Cereus = test: Agar plate disc-diffusion, antibacterial activity by inhibition zone; type: cell-based; conditions: Bacillus Cereus (Gram positive)
Method: (§1) The agar plate disc-diffusion method was applied. […] The discs were then placed onto the surface of agar plates (nutrient agar for bacteria and Sabouraud's dextrose agar for fungi) seeded with the test organism. Each plate contained 15 ml of the agar medium, previously seeded with 0.2 mL of the broth culture of each organism pregrown for 18 hours. The plates were incubated at 37° C. for 48 hours and 72 hours for fungi. The inhibition zones were measured in mm. Discs impregnated with DMSO were used as a control, and their inhibition zone was subtracted from the tested compound's actual inhibition zone.
(§2) The results of the antimicrobial testing can be observed in Tables 1 and 2, below, with ciprofloxacin serving as a reference.

Escherichia coli = test: as above; type: cell-based; conditions: Escherichia coli (Gram negative)
Method: as §1, §2

Staphylococcus aureus = test: as above; type: cell-based; conditions: Staphylococcus aureus (Gram positive)
Method: as §1, §2

Pseudomonas aeruginosa = test: as above; type: cell-based; conditions: Pseudomonas aeruginosa (Gram negative)
Method: as §1, §2

[1] = test system: Chrysosporium keratinophilum; test: Agar plate disc-diffusion, antifungal activity by inhibition zone; type: cell-based
Method: as §1, §2

Aspergillus flavus = test: as above; type: cell-based
Method: as §1, §2

[2] = A = concentration of comp. = 10,000 μL
[3] = B = concentration of comp. = 30.000 μL
[4] = C = concentration of comp. = 50,000 μL

melting point: 156 to 158 °C
Structure (SMILES): CCOc1nc(-c2ccccc2Cl)cc(-c2cccnc2)c1C#N [Compound 4, 6′-(2-chlorophenyl)-2′-ethoxy-3,4′-bipyridine-3′-carbonitrile]
inhibition zone (Bacillus Cereus; [2]): 25 mm | inhibition zone (Bacillus Cereus; [3]): 27 mm | inhibition zone (Bacillus Cereus; [4]): 39 mm | inhibition zone (Escherichia coli; [2]): 26 mm | inhibition zone (Escherichia coli; [3]): 28 mm | inhibition zone (Escherichia coli; [4]): 40 mm | inhibition zone (Staphylococcus aureus; [2]): 18 mm | inhibition zone (Staphylococcus aureus; [3]): 24 mm | inhibition zone (Staphylococcus aureus; [4]): 36 mm | inhibition zone (Pseudomonas aeruginosa; [2]): 25 mm | inhibition zone (Pseudomonas aeruginosa; [3]): 27 mm | inhibition zone (Pseudomonas aeruginosa; [4]): 38 mm | inhibition zone [1, 2]: 25 mm | inhibition zone [1, 3]: 27 mm | inhibition zone [1, 4]: 44 mm | inhibition zone (Aspergillus flavus; [2]): 20 mm | inhibition zone (Aspergillus flavus; [3]): 24 mm | inhibition zone (Aspergillus flavus; [4]): 35 mm

Source: patent US11958826B1, “6′-(2-chlorophenyl)-2′-ethoxy-3,4′-bipyridine-3′- carbonitrile as an antimicrobial compound” (KING FAISAL UNIVERSITY, priority 2023, dated 2024)
